Experimental findings from PubChem BioAssay AID248 (DTP/NCI, 2004) are described below.

Where “and” joins values, the source holds several entries; their conditions need not be identical. Equal values may be shown once. Inconclusive results and toxic doses are left out.

This test relates to L1210 leukemia ip in BDF1 mice, survival T/C. Briefly: NCI In Vivo Anticancer Drug Screen. Data for tumor model L1210 Leukemia (intraperitoneal) in B6D2F1 (BDF1) mice. The conditions noted are these: endpoint: mean survival time, higher = longer survival. Summed up: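 Each compound was tested against a transplantable tumor grown in mice. The endpoint was survival, with treated animals benchmarked against vehicle controls as a simple ratio.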

The mark [1] stands for this setting: dose: 100.0 mg/kg/injection, schedule: Q01DX009 (ip), vehicle: Klucel (hydroxypropylcellulose) (HPC).
Where [2] appears, read: dose: 100.0 mg/kg/injection, schedule: Q04DX003 (ip), vehicle: Klucel (hydroxypropylcellulose) (HPC).
Setting [3] is: dose: 200.0 mg/kg/injection, schedule: Q04DX003 (ip), vehicle: Klucel (hydroxypropylcellulose) (HPC).
Setting [4] is: dose: 400.0 mg/kg/injection, schedule: Q04DX003 (ip), vehicle: Klucel (hydroxypropylcellulose) (HPC).
The mark [5] stands for this setting: dose: 100.0 mg/kg/injection, schedule: Q01DX001 (ip), vehicle: Klucel (hydroxypropylcellulose) (HPC).

`O/N=C\c1ccccc1`: the T/C is, setting by setting: (dose: 50.0 mg/kg/injection, schedule: Q01DX009 (ip), vehicle: Klucel (hydroxypropylcellulose) (HPC)) 92 % of control; under setting [1], 86 % of control.

Consider `C=C1CC2C=CC1C2` (stereo not given) (tested in a mixture with another compound), for which the T/C was 98 % of control (dose: 100.0 mg/kg/injection, schedule: Q01DX001 (ip), vehicle: saline with Tween-80); 93 % of control (dose: 200.0 mg/kg/injection, schedule: Q01DX001 (ip), vehicle: saline with Tween-80); 94 % of control (dose: 400.0 mg/kg/injection, schedule: Q01DX001 (ip), vehicle: saline with Tween-80).

With `O=C(/C=C\c1ccc(/C=C/C(=O)Nc2cccc(C3=NCCCN3)c2)cc1)Nc1cccc(C2=NCCCN2)c1`, the T/C is 117 % of control (dose: 0.62 mg/kg/injection, schedule: Q01DX Z (ip), vehicle: carboxymethylcellulose (CMC)); 225 % of control (dose: 5.0 mg/kg/injection, schedule: Q01DX Z (ip), vehicle: carboxymethylcellulose (CMC)); 103 % of control (dose: 12.5 mg/kg/injection, schedule: Q01DX Z (oral), vehicle: carboxymethylcellulose (CMC)); 103 % of control (dose: 25.0 mg/kg/injection, schedule: Q01DX Z (oral), vehicle: carboxymethylcellulose (CMC)); 102 % of control (dose: 50.0 mg/kg/injection, schedule: Q01DX Z (oral), vehicle: carboxymethylcellulose (CMC)); 97 % of control (dose: 100.0 mg/kg/injection, schedule: Q01DX Z (oral), vehicle: carboxymethylcellulose (CMC)).

`CC(C)(C)c1cccc(C(=O)O)c1O`: the T/C was 97 % of control (dose: 100.0 mg/kg/injection, schedule: Q01DX001 (ip), vehicle: carboxymethylcellulose (CMC)); 97 % of control (dose: 200.0 mg/kg/injection, schedule: Q01DX001 (ip), vehicle: carboxymethylcellulose (CMC)); 90 % of control (dose: 400.0 mg/kg/injection, schedule: Q01DX001 (ip), vehicle: carboxymethylcellulose (CMC)).

Consider `CCN(CC)CCCNC(c1ccc(OC)c(OC)c1)C(Cl)(Cl)Cl` (stereo not given), for which the T/C by setting is: (dose: 75.0 mg/kg/injection, schedule: Q01DX001 (ip), vehicle: saline) 98 % of control; (dose: 150.0 mg/kg/injection, schedule: Q01DX001 (ip), vehicle: saline) 91 % of control.

In the case of `COc1ccccc1NC(=O)c1ccccc1F`, the T/C reads like this: under setting [1], 95 % of control; (dose: 200.0 mg/kg/injection, schedule: Q01DX009 (ip), vehicle: Klucel (hydroxypropylcellulose) (HPC)) 95 % of control; (dose: 400.0 mg/kg/injection, schedule: Q01DX009 (ip), vehicle: Klucel (hydroxypropylcellulose) (HPC)) 101 % of control.

Consider `O=C(O)CCC(=O)Nc1ccccc1`, for which the T/C is, setting by setting: under setting [2], 95 % of control; under setting [3], 97 % of control; under setting [4], 101 % of control.

`CC1CC(C)(C)OC(C)(C)O1` (stereo not given): the T/C is 90 % of control and 95 % of control (dose: 50.0 mg/kg/injection, schedule: Q01DX009 (ip), vehicle: acetone); 97 % of control and 94 % of control (dose: 100.0 mg/kg/injection, schedule: Q01DX009 (ip), vehicle: acetone); 101 % of control (dose: 100.0 mg/kg/injection, schedule: Q04DX002 (ip), vehicle: saline with Tween-80); 104 % of control and 109 % of control (dose: 100.0 mg/kg/injection, schedule: Q04DX003 (ip), vehicle: acetone); 94 % of control and 95 % of control (dose: 200.0 mg/kg/injection, schedule: Q01DX009 (ip), vehicle: acetone); 93 % of control (dose: 200.0 mg/kg/injection, schedule: Q04DX002 (ip), vehicle: saline with Tween-80). In addition, the T/C is, setting by setting: (dose: 200.0 mg/kg/injection, schedule: Q04DX003 (ip), vehicle: acetone) 95 % of control and 104 % of control; (dose: 400.0 mg/kg/injection, schedule: Q04DX002 (ip), vehicle: saline with Tween-80) 104 % of control; (dose: 400.0 mg/kg/injection, schedule: Q04DX003 (ip), vehicle: acetone) 94 % of control and 95 % of control.

On to `CC1(C)CS(=O)(=O)CC(C)(C)C(=O)C1=O`, for which the T/C under setting [5] is 108 % of control.

Take `Cc1cc(C)c(S(=O)(=O)C(=O)C(=O)NN)c(C)c1`: the T/C under setting [5] is 104 % of control; the T/C under setting [2] was 115 % of control; the T/C (dose: 200.0 mg/kg/injection, schedule: Q01DX001 (ip), vehicle: Klucel (hydroxypropylcellulose) (HPC)) is 106 % of control; the T/C under setting [3] was 109 % of control; the T/C (dose: 400.0 mg/kg/injection, schedule: Q01DX001 (ip), vehicle: Klucel (hydroxypropylcellulose) (HPC)) is 106 % of control; the T/C under setting [4] is 104 % of control.

`COc1ccc(C(c2ccc(OC)cc2)C(c2ccc(OC)cc2)c2ccc(OC)cc2)cc1`: the T/C reads like this: (dose: 100.0 mg/kg/injection, schedule: Q04DX002 (ip), vehicle: Klucel (hydroxypropylcellulose) (HPC)) 98 % of control; (dose: 200.0 mg/kg/injection, schedule: Q04DX002 (ip), vehicle: Klucel (hydroxypropylcellulose) (HPC)) 106 % of control; (dose: 400.0 mg/kg/injection, schedule: Q04DX002 (ip), vehicle: Klucel (hydroxypropylcellulose) (HPC)) 103 % of control.

As for `CC1=CC(=O)C=CC1=O`, the T/C (dose: 5.0 mg/kg/injection, schedule: Q01DX001 (ip), vehicle: saline) is 107 % of control.

As for `CC1C(=O)C2(C)C3(C)C(=O)C(C)(C(c4ccccc4)=C3c3ccccc3)C2(c2ccccc2)C1c1ccccc1` (stereo not given) (tested in a mixture with another compound), the T/C reads like this: (dose: 50.0 mg/kg/injection, schedule: Q01DX009 (ip), vehicle: saline with Tween-80) 98 % of control; (dose: 100.0 mg/kg/injection, schedule: Q01DX009 (ip), vehicle: saline with Tween-80) 95 % of control; (dose: 200.0 mg/kg/injection, schedule: Q01DX009 (ip), vehicle: saline with Tween-80) 95 % of control.
